Data on 3 compounds can be found in article PMC11413853, “Discovery of VU6007496: Challenges in the Development of an M1 Positive Allosteric Modulator Backup Candidate” (ACS Chemical Neuroscience, 2024).

SMILES strings stand for the structures. Like-named read-outs stand apart in the source and are kept apart here. Bounds are passed on as bounds.

In one data set the target is T1, rat M1 (Rattus norvegicus, UniProt P08482).
T1 construct: expressed in transfected cells; host or cells: CHO (stated in general for all functional cell-based assays)
T1 sequence (P08482 1-460): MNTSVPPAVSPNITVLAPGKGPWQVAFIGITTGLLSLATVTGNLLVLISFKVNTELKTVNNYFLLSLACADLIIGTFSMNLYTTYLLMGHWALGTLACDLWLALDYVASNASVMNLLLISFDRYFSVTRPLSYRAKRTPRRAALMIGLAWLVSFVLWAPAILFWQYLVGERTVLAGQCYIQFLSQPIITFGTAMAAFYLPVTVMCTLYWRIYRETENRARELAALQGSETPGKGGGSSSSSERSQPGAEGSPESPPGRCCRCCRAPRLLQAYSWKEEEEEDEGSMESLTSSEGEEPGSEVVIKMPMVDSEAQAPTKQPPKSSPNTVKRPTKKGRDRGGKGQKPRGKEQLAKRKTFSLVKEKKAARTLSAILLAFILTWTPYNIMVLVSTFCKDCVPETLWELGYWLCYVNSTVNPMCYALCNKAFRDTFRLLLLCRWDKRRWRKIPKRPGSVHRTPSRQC
Kind of data set: Calcium mobilization assay, rat M1 (agonist and PAM modes). The format is cell-based. The conditions noted are these: for rM1 PAM AChmax (%) / rM1 Agonist AChmax (%): % ACh max. For orientation: Calcium flux is commonly read through the fluorescence of an indicator in the cells.

The subject of another data set is rM2-5. The data set can be described thus: Muscarinic selectivity, rat M2-5. The format is cell-based.
The nature of data set [1]: Predicted hepatic clearance, rat hepatic microsomes. In kind it is in vitro ADME. Here is the method:
Intrinsic clearance: Human or rat hepatic microsomes (0.5 mg/mL) and 1 µM test compound were incubated in 100 mM potassium phosphate pH 7.4 buffer with 3 mM MgCl2 at 37 °C with constant shaking. After a 5 min preincubation, the reaction was initiated by the addition of NADPH (1 mM). At selected time intervals (0, 3, 7, 15, 25, and 45 min), aliquots were taken and subsequently placed into a 96-well plate containing cold acetonitrile with internal standard (50 ng/mL carbamazepine). Plates were then centrifuged at 3000 rcf (4 °C) for 10 min, and the supernatant was transferred to a separate 96-well plate and diluted 1:1 with water for LC/MS/MS analysis. The in vitro half-life ( 1/2, min, Eq. 1), intrinsic clearance (CLint, mL/min/kg, Eq. 2), and subsequent predicted hepatic clearance (CLhep, mL/min/kg, Eq. 3) was determined employing the […]
where k represents the slope from linear regression analysis of the natural log percent remaining of a test compound as a function of incubation time […]
(2) CLint = in vitroT1/2 x mg microsomes x gram liver x kg body wt ascale-up factors: of 20 (human) or 45 (rat) […]
where Qh (hepatic blood flow, mL/min/kg) is 21 (human) or 70 (rat).
LC/MS/MS Bioanalysis of Samples from Plasma Protein Binding and Intrinsic Clearance […]
Samples were analyzed on a Thermo Electron TSQ Quantum Ultra triple quad mass spectrometer (San Jose, CA) via electrospray ionization (ESI) with two Themo Electron Accella pumps (San Jose, CA), and a Leap Technologies CTC PAL autosampler (Carrboro, NC). Analytes were separated by gradient elution on a dual column system with two Thermo Hypersil Gold (2.1 x 30 mm, 1.9 µm) columns (San Jose, CA) thermostated at 40 °C. HPLC mobile phase A was 0.1% formic acid in water and mobile phase B was 0.1% formic acid in acetonitrile. The gradient started […]
for 0.2 min; returned to 10% B in 0.1 min. The total run time was 1.3 min and the HPLC flow rate was 0.8 mL/min. […]

The nature of data set [2]: Plasma protein binding, rat. In kind it is in vitro ADME. To be noted: pH 7.4, read-out: fu,plasma rat. Here is the method:
Plasma protein binding and Brain homogenate binding: Determination of fraction unbound (f u) in plasma was conducted in vitro via equilibrium dialysis using HTDialysis (HTD) membrane plates. The top half of the plate was filled with 100 uL of Dubelco’s Phosphate Buffered Saline, pH 7.4 (DPBS). Compounds were diluted into plasma from each species (5 µM final concentration), which was aliquoted in triplicate to the ‘bottom half’ of the prepared HTD plate wells. The HTD plate was sealed and incubated for 6 hours at 37 °C. Following incubation, each well (both top and bottom halves) were transferred (20 µL) to the corresponding wells of a 96-shallow-well (V-bottom) plate. The daughter plates were then matrix-matched (DPBS side wells received equal volume of plasma, and plasma side wells received equal volume of DPBS), and extraction solution (120 µL; acetonitrile containing 50 nM carbamazepine as IS) was added to all wells of both daughter plates to precipitate protein and extract test article. The plates were then sealed and centrifuged (3500 rcf) for 10 minutes at ambient temperature. Supernatant (60 µL) from each well of the daughter plates was then transferred to the corresponding wells of new daughter plates (96-shallow-well, V bottom) containing water (Milli-Q, 60 µL/well), and the plates were sealed in preparation for LC-MS/MS analysis (see LC-MS/MS analysis method below).
The unbound fraction (f u) was calculated following the equation below, and mean values for each species were calculated from 3 replicates. […]
Fraction unbound for both plasma and brain samples was determined using Equation 4.
Equation 4 Determination of fraction unbound in plasma.

A short description of data set [3]: Plasma protein binding, cyno. In kind it is in vitro ADME. To be noted: cynomolgus monkey, pH 7.4, read-out: fu,plasma cyno. Here is the method: Plasma protein binding and Brain homogenate binding: Determination of fraction unbound (f u) in plasma was conducted in vitro via equilibrium dialysis using HTDialysis (HTD) membrane plates. The top half of the plate was filled with 100 uL of Dubelco’s Phosphate Buffered Saline, pH 7.4 (DPBS). Compounds were diluted into plasma from each species (5 µM final concentration), which was aliquoted in triplicate to the ‘bottom half’ of the prepared HTD plate wells. The HTD plate was sealed and incubated for 6 hours at 37 °C. Following incubation, each well (both top and bottom halves) were transferred (20 µL) to the corresponding wells of a 96-shallow-well (V-bottom) plate. […]
The unbound fraction (f u) was calculated following the equation below, and mean values for each species were calculated from 3 replicates.
A similar approach was used to determine the degree of brain homogenate binding, which employed the same methodology and procedure with the following modifications: 1) a final compound concentration of 1 μM was used, 2) naïve rat brains were homogenized in DPBS (1:3 composition of brain: DPBS, w/w) using a Mini-Bead Beater™ machine in order to obtain brain homogenate, which was then treated in the same manner as the plasma samples in the previously described plasma protein binding assay. Fraction unbound for both plasma and brain samples was determined using Equation 4. […]

The target of a further data set is CYP2D6 (Homo sapiens, UniProt P10635). The data set can be described thus: CYP inhibition, 2D6. In kind it is in vitro ADME.
[4] abbreviates: PAM mode, read-out: rM1 PAM EC50.
Where [5] appears, read: agonist mode, read-out: rM1 Agonist EC50.

Chain of CYP2D6 (P10635 whole entry): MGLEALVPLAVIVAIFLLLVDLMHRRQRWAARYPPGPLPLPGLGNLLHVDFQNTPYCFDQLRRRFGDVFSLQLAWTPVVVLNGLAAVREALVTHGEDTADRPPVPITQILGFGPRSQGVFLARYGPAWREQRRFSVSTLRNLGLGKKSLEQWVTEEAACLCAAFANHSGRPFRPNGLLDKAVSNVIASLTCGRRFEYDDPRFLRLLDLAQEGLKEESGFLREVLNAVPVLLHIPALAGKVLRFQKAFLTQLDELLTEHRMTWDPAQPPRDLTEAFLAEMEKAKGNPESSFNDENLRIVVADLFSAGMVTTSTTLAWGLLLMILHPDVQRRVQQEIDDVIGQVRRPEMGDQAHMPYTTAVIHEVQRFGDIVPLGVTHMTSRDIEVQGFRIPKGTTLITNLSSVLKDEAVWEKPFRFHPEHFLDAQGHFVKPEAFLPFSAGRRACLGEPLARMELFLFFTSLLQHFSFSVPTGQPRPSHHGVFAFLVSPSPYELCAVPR

One may read the EC50 as the concentration needed to bring the measured effect to its halfway point. As a reminder, the IC50 is the concentration at which inhibition is half-maximal. A lower IC50 goes with inhibition by little substance. Take `Cn1ccc(-c2ccc(Cc3cc(C(=O)NC4CCOCC4)nc4ccn(C)c34)cc2)n1` [compound 11]: the “rM1 PAM AChmax (%)” value on rat M1 (PAM mode) came out at 91%. Further, the results for the 50% effective concentration (EC50) at rat M1 (setting [4]), at rat M1 (setting [5]) and in the data set on rM2-5 were 0.094 µM, 7.34 µM and more than 30 µM, respectively. On rat M1 (agonist mode), the “rM1 Agonist AChmax (%)” value amounted to 36%. For the same compound, the “Predicted CLhep, rat” value in data set [1] was 38 mL/min/kg. The fraction unbound at 6 h, 5 µM was found to be 0.04 in data set [2] and 0.026 in data set [3]. Also, on CYP2D6, the half-inhibitory concentration (IC50) is more than 30 µM.

For the compound `Cn1ccc(-c2ccc(Cc3cc(C(=O)NC4CCOCC4)nc4ccsc34)cc2)n1` [compound 12], the “rM1 PAM AChmax (%)” value at rat M1 (PAM mode) is listed as 90%. The concentration for a half-maximal effect (EC50) on rat M1 (setting [4]) is 0.063 µM; on rat M1 (setting [5]), 4.35 µM; with rM2-5 it was more than 30 µM. Further, on rat M1 (agonist mode), the “rM1 Agonist AChmax (%)” value is listed as 32%. For the same compound, in data set [1], the “Predicted CLhep, rat” value is listed as 33 mL/min/kg. The values for the fraction unbound at 6 h, 5 µM in data set [2] and in data set [3] were 0.015 and 0.009, respectively. In addition, at CYP2D6, the IC50 is more than 30 µM.

With `Cn1ccc2nc(C(=O)NC3CCOCC3)cc(Cc3ccc(-c4cc[nH]n4)cc3)c21` [compound 24], on rat M1 (PAM mode), the “rM1 PAM AChmax (%)” value came out at 89%. Further, the EC50 on rat M1 (setting [4]) was 0.056 µM; at rat M1 (agonist mode, read-out: rat M1 agonism EC50), 3.1 µM. The “rM1 Agonist AChmax (%)” value at rat M1 (agonist mode) stood at 48%. In addition, the “activity on rat M2–5” value in the data set on rM2-5 was “inactive”. For the same compound, in data set [1], the “Predicted CLhep, rat” value is given as 44 mL/min/kg. Besides, the fraction unbound at 6 h, 5 µM in data set [2] is 0.134. On CYP2D6, this compound yielded an IC50 of more than 30 µM.
